Source: PMC5329131 (Biochimica et biophysica acta, 2017)
Where no end group is shown, it is not given here.

Tests used:
[1] = tested on: rabbit skeletal heavy SR vesicles (RyR1); assay: Ca2+ release from heavy SR vesicles; format: biochemical; details: for Ca2+ release by vesicles (quality control): response to caffeine, 4-cmc and A23187; for Ca2+ release by RyR agonists vs A23187: same vesicles, data not shown
[2] = target: RyR1 (Oryctolagus cuniculus) (UniProt P11716); assay: [3H]ryanodine binding; details: cited from earlier work
RyR1 = details: alanine scanning of Imperacalcin; ref Lee et al., 2004; cited from earlier work
SR Ca2+ release (RyR1) = details: ref Xiao et al., 2016; cited from earlier work
RyRs = details: cited from earlier work

Chain of UniProt P11716 (P11716 whole entry): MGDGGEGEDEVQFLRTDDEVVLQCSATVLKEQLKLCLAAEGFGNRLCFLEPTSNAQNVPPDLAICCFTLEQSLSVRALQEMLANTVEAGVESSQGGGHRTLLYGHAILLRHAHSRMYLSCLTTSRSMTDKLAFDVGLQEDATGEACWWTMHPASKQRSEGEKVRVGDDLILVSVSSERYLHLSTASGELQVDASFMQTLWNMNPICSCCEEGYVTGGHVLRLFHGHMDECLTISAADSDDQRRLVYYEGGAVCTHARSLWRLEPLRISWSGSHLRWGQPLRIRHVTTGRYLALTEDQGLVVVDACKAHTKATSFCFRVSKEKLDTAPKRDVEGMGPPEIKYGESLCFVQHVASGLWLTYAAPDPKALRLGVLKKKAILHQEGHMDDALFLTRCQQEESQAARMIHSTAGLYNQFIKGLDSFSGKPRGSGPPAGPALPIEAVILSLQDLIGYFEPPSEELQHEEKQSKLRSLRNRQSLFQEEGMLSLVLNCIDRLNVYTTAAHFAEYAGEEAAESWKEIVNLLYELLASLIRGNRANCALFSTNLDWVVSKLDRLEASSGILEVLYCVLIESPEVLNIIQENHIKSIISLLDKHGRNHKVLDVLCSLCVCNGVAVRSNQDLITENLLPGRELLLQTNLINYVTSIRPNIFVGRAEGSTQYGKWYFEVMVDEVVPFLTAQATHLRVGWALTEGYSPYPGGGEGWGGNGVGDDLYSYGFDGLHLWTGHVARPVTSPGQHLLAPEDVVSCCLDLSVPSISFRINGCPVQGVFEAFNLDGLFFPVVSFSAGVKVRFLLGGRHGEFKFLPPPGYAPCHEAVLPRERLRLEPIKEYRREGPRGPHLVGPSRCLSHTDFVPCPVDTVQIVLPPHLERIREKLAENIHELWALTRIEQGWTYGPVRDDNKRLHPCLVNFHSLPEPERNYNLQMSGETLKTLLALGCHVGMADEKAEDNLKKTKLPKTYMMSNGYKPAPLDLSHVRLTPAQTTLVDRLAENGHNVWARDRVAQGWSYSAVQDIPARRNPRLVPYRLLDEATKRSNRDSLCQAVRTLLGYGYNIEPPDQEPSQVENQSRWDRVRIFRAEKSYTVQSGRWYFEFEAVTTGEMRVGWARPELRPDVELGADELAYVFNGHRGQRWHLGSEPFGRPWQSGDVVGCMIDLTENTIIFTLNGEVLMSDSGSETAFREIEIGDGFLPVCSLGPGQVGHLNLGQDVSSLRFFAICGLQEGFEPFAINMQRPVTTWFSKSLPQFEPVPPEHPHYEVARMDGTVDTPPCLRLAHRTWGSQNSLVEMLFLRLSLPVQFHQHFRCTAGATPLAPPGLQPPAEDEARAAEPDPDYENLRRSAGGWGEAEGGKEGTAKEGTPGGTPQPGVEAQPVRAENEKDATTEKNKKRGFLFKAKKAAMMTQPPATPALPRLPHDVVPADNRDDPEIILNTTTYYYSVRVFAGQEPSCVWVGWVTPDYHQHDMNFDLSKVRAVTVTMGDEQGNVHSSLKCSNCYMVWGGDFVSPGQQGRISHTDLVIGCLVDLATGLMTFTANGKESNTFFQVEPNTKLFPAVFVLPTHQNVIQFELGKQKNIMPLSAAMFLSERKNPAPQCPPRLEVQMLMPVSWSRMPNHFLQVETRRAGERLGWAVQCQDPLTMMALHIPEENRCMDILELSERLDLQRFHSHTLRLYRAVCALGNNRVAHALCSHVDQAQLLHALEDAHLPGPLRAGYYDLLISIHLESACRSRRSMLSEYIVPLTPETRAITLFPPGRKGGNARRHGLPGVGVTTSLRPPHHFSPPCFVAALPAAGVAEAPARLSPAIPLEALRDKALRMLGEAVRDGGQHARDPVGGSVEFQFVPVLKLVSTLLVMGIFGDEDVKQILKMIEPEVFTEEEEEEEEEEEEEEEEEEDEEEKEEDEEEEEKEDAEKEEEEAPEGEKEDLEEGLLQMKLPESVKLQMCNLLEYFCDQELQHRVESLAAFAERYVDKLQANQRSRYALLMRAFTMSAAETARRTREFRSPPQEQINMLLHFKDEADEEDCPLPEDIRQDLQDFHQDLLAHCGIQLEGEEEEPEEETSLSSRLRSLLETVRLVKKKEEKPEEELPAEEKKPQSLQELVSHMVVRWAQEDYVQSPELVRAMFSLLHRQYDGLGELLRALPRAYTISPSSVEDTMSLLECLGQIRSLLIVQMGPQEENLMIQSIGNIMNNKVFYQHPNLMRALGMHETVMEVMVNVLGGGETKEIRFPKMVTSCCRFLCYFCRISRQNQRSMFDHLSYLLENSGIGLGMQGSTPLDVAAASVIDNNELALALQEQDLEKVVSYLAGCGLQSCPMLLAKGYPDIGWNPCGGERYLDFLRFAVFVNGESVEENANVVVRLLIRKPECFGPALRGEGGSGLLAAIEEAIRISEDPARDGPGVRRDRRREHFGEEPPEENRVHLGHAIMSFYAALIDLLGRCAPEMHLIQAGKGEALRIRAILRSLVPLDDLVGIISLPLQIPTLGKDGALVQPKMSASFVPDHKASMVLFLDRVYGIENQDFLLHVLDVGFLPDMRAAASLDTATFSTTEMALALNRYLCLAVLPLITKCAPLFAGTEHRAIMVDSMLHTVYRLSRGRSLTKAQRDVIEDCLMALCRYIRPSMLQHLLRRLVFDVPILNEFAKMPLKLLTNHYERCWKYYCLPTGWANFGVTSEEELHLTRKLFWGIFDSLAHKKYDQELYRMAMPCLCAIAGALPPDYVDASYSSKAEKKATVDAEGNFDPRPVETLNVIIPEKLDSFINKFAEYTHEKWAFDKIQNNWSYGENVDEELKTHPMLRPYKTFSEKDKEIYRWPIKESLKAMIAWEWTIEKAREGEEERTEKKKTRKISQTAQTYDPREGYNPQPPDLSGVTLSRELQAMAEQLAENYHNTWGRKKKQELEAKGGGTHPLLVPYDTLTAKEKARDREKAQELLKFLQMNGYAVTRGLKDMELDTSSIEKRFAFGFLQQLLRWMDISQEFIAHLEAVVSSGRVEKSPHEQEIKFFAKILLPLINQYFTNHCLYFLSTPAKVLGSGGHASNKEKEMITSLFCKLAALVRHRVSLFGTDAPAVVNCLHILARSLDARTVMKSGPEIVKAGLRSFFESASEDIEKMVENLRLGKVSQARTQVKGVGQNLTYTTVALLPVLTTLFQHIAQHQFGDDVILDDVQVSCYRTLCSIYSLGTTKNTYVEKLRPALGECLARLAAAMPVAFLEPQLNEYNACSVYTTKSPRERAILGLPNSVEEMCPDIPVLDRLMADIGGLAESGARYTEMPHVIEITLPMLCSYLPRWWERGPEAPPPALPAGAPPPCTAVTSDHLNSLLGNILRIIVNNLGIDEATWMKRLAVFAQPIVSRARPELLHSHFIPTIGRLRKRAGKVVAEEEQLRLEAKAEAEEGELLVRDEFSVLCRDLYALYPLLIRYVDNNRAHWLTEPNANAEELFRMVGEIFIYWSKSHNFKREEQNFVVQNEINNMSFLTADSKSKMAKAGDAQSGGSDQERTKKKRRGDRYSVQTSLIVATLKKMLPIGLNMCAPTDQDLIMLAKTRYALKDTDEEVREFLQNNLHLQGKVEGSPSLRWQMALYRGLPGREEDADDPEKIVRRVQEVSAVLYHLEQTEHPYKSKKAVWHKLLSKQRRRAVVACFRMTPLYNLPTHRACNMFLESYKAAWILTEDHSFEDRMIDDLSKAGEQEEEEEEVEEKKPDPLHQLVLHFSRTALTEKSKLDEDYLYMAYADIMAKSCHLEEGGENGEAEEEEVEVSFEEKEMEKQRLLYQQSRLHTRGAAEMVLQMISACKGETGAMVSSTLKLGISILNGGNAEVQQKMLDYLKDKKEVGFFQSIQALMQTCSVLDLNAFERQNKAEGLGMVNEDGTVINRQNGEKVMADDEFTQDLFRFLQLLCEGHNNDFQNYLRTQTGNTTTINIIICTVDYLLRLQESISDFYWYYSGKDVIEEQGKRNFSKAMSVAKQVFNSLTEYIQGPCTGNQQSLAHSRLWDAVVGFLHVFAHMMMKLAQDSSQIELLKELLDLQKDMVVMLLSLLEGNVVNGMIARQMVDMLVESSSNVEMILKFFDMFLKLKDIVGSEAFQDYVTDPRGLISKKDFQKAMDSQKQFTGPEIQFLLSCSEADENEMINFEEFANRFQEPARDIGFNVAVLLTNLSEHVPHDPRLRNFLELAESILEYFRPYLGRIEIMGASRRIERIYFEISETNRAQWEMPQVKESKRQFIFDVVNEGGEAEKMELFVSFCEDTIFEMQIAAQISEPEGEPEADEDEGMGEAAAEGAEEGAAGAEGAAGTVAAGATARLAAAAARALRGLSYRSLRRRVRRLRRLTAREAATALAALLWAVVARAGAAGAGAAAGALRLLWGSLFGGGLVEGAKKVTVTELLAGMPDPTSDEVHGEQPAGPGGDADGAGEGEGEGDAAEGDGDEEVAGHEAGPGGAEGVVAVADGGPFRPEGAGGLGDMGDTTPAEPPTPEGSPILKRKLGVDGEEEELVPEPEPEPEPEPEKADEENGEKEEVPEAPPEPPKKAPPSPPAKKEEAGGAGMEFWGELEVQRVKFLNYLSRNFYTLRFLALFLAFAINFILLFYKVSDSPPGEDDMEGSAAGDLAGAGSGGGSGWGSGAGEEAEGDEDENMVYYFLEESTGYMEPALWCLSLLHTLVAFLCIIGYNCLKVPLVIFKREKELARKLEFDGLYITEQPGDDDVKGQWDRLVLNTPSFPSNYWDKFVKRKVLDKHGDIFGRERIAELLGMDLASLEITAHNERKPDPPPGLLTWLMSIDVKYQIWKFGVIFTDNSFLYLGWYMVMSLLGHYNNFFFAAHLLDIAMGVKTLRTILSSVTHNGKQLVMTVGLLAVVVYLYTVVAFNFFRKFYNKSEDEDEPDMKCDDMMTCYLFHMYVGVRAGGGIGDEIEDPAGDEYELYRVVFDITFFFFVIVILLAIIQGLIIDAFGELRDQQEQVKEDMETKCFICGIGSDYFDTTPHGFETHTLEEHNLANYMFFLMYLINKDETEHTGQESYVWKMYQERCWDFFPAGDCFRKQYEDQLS

Cn1c(=O)c2c(ncn2C)n(C)c1=O [Caffeine, caffeine]
Ca2+ release by vesicles (quality control) [1]: equivalent amount of Ca^2+ | Ca2+ release by RyR agonists vs A23187 [1]: release roughly equivalent levels of Ca^2+ in these vesicles as that emptied by A23187

Maurocalcin (from UniProt P60254)
Kd [2]: 26.4 nM

Hadrucalcin (from UniProt B8QG00)
Kd [2]: 14.8 nM

CNc1ccc2oc(C[C@H]3O[C@@]4(CC[C@H]3C)O[C@H]([C@H](C)C(=O)c3ccc[nH]3)[C@H](C)C[C@H]4C)nc2c1C(=O)O [A23187]
Ca2+ release by vesicles (quality control) [1]: equivalent amount of Ca^2+

N14A: alanine-scanning mutant N14A of Imperacalcin (GDCLPHLKRCKADADCCGKKCKRRGTNAEKRCR; ends and bridges not checked; cysteine pairing not given here; UniProt P59868 1-33, looked up, variant N14A)
influence of mutation on binding affinity (RyR1): almost no influence on binding affinity

Opicalcin2 (from UniProt P60253)
Kd [2]: 3.2 nM

Hemicalcin (from UniProt A0A1L4BJ42)
Kd [2]: 6.9 nM

Imperacalcin (from UniProt P59868)
Kd [2]: 8.7 nM

Cc1cc(O)ccc1Cl [4-cmc]
Ca2+ release by vesicles (quality control) [1]: equivalent amount of Ca^2+ | Ca2+ release by RyR agonists vs A23187 [1]: release roughly equivalent levels of Ca^2+ in these vesicles as that emptied by A23187

Opicalcin2: calcin from Opistophthalmus carinatus, UniProt P60253 (GDCLPHLKRCKENNDCCSKKCKRRGANPEKRCR; ends and bridges not checked; cysteine pairing not given here; UniProt P60253 34-66, looked up)
binding affinity vs ability to stimulate Ca2+ release (SR Ca2+ release (RyR1)): strong binding affinity but weaker ability to stimulate Ca^2+ release

Vejocalcin (from UniProt P0DPT1)
Kd [2]: 3.7 nM

Imperacalcin: 33-amino acid calcin from Pandinus imperator, UniProt P59868 (GDCLPHLKRCKADNDCCGKKCKRRGTNAEKRCR; ends and bridges not checked; cysteine pairing not given here; UniProt P59868 1-33, looked up)
binding site by single RyR1 channel analysis (RyRs; ref Tripathy et al., 1998): enters the channel vestibule and binds to a single site located within the ion conduction pathway and close to the voltage drop of the channel | effect on RyR gating (RyRs; ref not given): increases their activity by inducing the appearance of a long-lived subconductance state

Opicalcin1 (from UniProt P60252)
Kd [2]: 0.3 nM

Urocalcin (from UniProt L0GBR1)
Kd [2]: 376 nM
